Laboratory results published in PMC9189845, “Structure–Activity Relationships of 8-Hydroxyquinoline-Derived Mannich Bases with Tertiary Amines Targeting Multidrug-Resistant Cancer” (Journal of Medicinal Chemistry, 2022).
Where a name gives a salt, the structure may show the parent alone. Read-outs that look alike come from different tables or passages of the source.

Assays:
MES-SA cells = assay: PrestoBlue viability assay, MES-SA cells; conditions: for pIC50 value MES-SA: MES-SA cells, without TQ
MES-SA/Dx5 cells = assay: PrestoBlue viability assay, MES-SA/Dx5 cells (MDR, P-gp positive); conditions: for pIC50 value MES-SA/Dx5: MES-SA/Dx5 cells, without TQ
[1] = read-out: IC50 / μM MES-SA, absence of TQ, 72 h incubation
[2] = read-out: IC50 / μM MES-SA/Dx5, absence of TQ, 72 h incubation
[3] = selectivity ratio MES-SA vs MES-SA/Dx5, without TQ
[4] = Homo sapiens, MES-SA, 72 h, read-out: IC50 / μM MES-SA, absence of TQ, 72 h incubation
[5] = Homo sapiens, MES-SA/Dx5, 72 h, read-out: IC50 / μM MES-SA/Dx5, absence of TQ, 72 h incubation
[6] = Homo sapiens, MES-SA, read-out: pIC50 value MES-SA, MES-SA cells, without TQ (converted)
[7] = Homo sapiens, MES-SA/Dx5, read-out: pIC50 value MES-SA/Dx5, MES-SA/Dx5 cells, without TQ (converted)
[8] = selectivity ratio MES-SA vs MES-SA/Dx5, with TQ

Row | Compound | pIC50 value MES-SA (MES-SA cells) | IC50 (MES-SA cells; [1]) | pIC50 value MES-SA/Dx5 (MES-SA/Dx5 cells) | IC50 (MES-SA/Dx5 cells; [2]) | SR (MES-SA/Dx5 cells; [3]) | IC50 (MES-SA cells; [4]) | IC50 (MES-SA/Dx5 cells; [5]) | IC50 (MES-SA cells; [6]) | IC50 (MES-SA/Dx5 cells; [7]) | other results
1 | Oc1c(C(c2ccccc2Cl)N2CCOCC2)ccc2cccnc12 (centres unmarked) [Compound 105] | 4.73 | 18.45 ± 0.14 µM | 4.79 | 16.4 ± 1.02 µM | 1.13 |  |  |  |  | 
2 | COc1ccc(O)c(CN2CCN(C)CC2)c1 [Compound 73] |  |  |  |  |  | > 100 µM | > 100 µM |  |  | 
3 | COc1ccc(C(c2ccc3cccnc3c2O)N2CCOCC2)cc1 (centres unmarked) [Compound 107] | 4.69 | 20.3 ± 1.7 µM | 4.81 | 15.8 ± 2.97 µM | 1.29 |  |  |  |  | 
4 | Oc1cc2c(cc1O)CN(Cc1ccc3cccnc3c1O)CC2 [Compound 82, 2-((8-Hydroxy-quinolin-7-yl)methyl)-1,2,3,4-tetrahydroisoquinoline-6,7-diol Hydrochloride] |  |  |  |  | 0.95 | 3.42 ± 0.28 µM | 3.61 ± 0.51 µM | 3.39 µM | 3.55 µM | 
5 | OCCN1CCN(C(c2ccccc2)c2ccc3cccnc3c2O)CC1 (centres unmarked) [Compound 119] | 4.69 | 20.7 ± 0.97 µM | 4.88 | 13.5 ± 2.55 µM | 1.53 |  |  |  |  | SR_TQ (MES-SA/Dx5 cells; [8]): 1.7
6 | CC1CCN(C(c2cccs2)c2ccc3cccnc3c2O)CC1 (racemic) [Compound 101] | 4.97 | 10.8 ± 0.18 µM | 4.78 | 16.6 ± 0.81 µM | 0.65 |  |  |  |  | 
7 | CN1CCN(C(c2ccncc2)c2ccc3cccnc3c2O)CC1 (centres unmarked) [Compound 112] |  |  |  |  | 2.02 | 22.1 ± 2.7 µM | 11 ± 2.12 µM | 21.9 µM | 10.7 µM | IC50 (MES-SA cells; Homo sapiens, MES-SA, read-out: pIC50 value MES-SA+TQ, MES-SA cells, with TQ (converted)): 32.4 µM; IC50 (MES-SA/Dx5 cells; Homo sapiens, MES-SA/Dx5, read-out: pIC50 value MES-SA/Dx5 + TQ, MES-SA/Dx5 cells, with TQ (converted)): 20.4 µM; SR_TQ (MES-SA/Dx5 cells; [8]): 1.58
8 | Oc1c(C(c2ccc(C(F)(F)F)cc2)N2CCCC2)ccc2cccnc12 (racemic) [Compound 89] | 4.98 | 11.1 ± 3.57 µM | 5.56 | 2.83 ± 0.61 µM | 3.91 |  |  |  |  | SR_TQ (MES-SA/Dx5 cells; [8]): 1.12
9 | CCN1CCN(C(c2ccccn2)c2cc(Cl)c3cccnc3c2O)CC1 (centres unmarked) [Compound 117] |  |  |  |  | 1.16 | 28.3 ± 2.32 µM | 24.4 ± 3.58 µM | 28.2 µM | 24 µM | 
10 | CCN1CCN(C(c2cccs2)c2ccc3cccnc3c2O)CC1 (centres unmarked) [Compound 116] |  |  |  |  | 0.64 | 9.06 ± 0.23 µM | 14.2 ± 1.36 µM | 9.12 µM | 14.1 µM | 
11 | Oc1cccc2cccnc12 [Compound 12, 8-hydroxyquinoline] |  |  |  |  |  |  |  |  |  | IC50 (MES-SA cells; Homo sapiens, MES-SA, 72 h, read-out: IC50 / μM MES-SA): 5.04 ± 0.51 µM; IC50 (MES-SA cells; Homo sapiens, MES-SA, read-out: IC50 / μM MES-SA (values in parentheses)): 5.13 ± 0.05 µM; IC50 (MES-SA cells; Homo sapiens, MES-SA, read-out: pIC50 value MES-SA (converted)): 5.01 µM; IC50 (MES-SA cells; Homo sapiens, MES-SA, read-out: pIC50 value MES-SA+TQ (converted)): 5.13 µM; SR (MES-SA/Dx5 cells): 1.66; SR_TQ (MES-SA/Dx5 cells): 2.34; IC50 (MES-SA/Dx5 cells; Homo sapiens, MES-SA/Dx5, 72 h, read-out: IC50 / μM MES-SA/Dx5): 3.04 ± 0.35 µM; IC50 (MES-SA/Dx5 cells; Homo sapiens, MES-SA/Dx5, read-out: IC50 / μM MES-SA/Dx5 (values in parentheses)): 2.2 ± 0.18 µM; IC50 (MES-SA/Dx5 cells; Homo sapiens, MES-SA/Dx5, read-out: pIC50 value MES-SA/Dx5 (converted)): 3.02 µM; IC50 (MES-SA/Dx5 cells; Homo sapiens, MES-SA/Dx5, read-out: pIC50 value MES-SA/Dx5 + TQ (converted)): 2.19 µM
12 | Cc1ccc(O)c(C(=O)N2CCOCC2)c1 [Compound 68] |  |  |  |  |  | > 100 µM | > 100 µM | 380 µM |  | 
13 | CCOC(=O)C1CCCN(Cc2cc(Cl)c3cccnc3c2O)C1 (centres unmarked) [Compound 78] |  |  |  |  |  | 2.52 ± 0.22 µM | 0.43 ± 0.01 µM |  |  | IC50 (MES-SA cells; Homo sapiens, MES-SA, read-out: IC50 / μM MES-SA (values in parentheses), presence of 1 μM P-gp inhibitor tariquidar (TQ)): 2.14 µM; IC50 (MES-SA/Dx5 cells; Homo sapiens, MES-SA/Dx5, read-out: IC50 / μM MES-SA/Dx5 (values in parentheses), presence of 1 μM P-gp inhibitor tariquidar (TQ)): 1.18 µM; SR (MES-SA / MES-SA/Dx5) (MES-SA/Dx5 cells; fraction of IC50 in P-gp negative vs positive cells, absence of TQ): 5.91; SR (MES-SA_TQ / Dx5_TQ) (values in parentheses) (MES-SA/Dx5 cells; fraction of IC50 in P-gp negative vs positive cells, presence of 1 μM TQ): 1.81
